{"source": "patent US6323001A", "about": "“Increasing the trehalose content of organisms by transforming them with combinations of the structural genes for trehalose synthase” (BTG International Ltd., priority 1994, dated 2001)", "biological_target": "T1, Tre6P synthase activity of truncated trehalose synthase (Saccharomyces cerevisiae, UniProt Q00764)", "T1 construct": "contained the 57 kDa short chain; made in house; host or cells: baker's yeast (native enzyme, proteolytically truncated during purification)", "T1 sequence (Q00764 1-495)": "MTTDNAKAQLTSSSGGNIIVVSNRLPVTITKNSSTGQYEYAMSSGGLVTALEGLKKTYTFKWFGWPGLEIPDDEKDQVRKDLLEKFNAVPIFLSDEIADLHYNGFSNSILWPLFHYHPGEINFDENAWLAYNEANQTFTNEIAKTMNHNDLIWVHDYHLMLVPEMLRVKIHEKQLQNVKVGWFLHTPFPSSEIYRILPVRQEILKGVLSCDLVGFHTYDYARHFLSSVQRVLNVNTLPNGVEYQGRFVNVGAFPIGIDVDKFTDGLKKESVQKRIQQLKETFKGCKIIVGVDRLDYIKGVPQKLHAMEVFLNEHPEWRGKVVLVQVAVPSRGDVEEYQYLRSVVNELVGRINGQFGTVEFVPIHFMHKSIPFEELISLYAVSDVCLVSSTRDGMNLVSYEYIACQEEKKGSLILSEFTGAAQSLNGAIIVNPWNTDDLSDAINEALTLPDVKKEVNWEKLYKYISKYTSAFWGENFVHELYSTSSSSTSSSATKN", "assay": "Tre6P synthase assay of truncated trehalose synthase", "format": "biochemical, baker's yeast", "conditions": "10 mM G6P, 5 mM UDPG, 5 mM F6P, without phosphate = 100%", "method": "With microbial materials, Tre6Pase and Tre6P synthase standard assays and other kinetic measurements were made as described by Londesborough & Vuorio [(1991) loc. cit.] except that the standard Tre6P synthase assay mixture contained 5 mM F6P unless stated otherwise.\nTruncated trehalose synthase containing the short (57 kDa) chain and the 86 and 93 kDa long chain fragments was prepared according to the method of Londesborough & Vuorio (1991) loc. cit.] for proteolytically activated TPS/P complex. Tre6P synthase and Tre6Pase activities were assayed as described by Londesborough & Vuorio [(1991) loc. cit.]. [N-ethyl-1-^14C]-maleimide (ethyl-labelled NEM; 40 mCi/mmol) was NEC-454 from New England Nuclear. N-ethyl-[2,3-^14 C]-maleimide (ring-labelled NEM; 6 mCi/mmol) was CFA 293 from Amersham International. Both were obtained as solutions in n-pentane and the manufacturer's stated specific activities were assumed to be correct. Unlabelled N-ethyl-maleimide (NEM) was E-3876 from Sigma. It was dissolved in 25 mM HEPES pH 7.0 immediately before use and standardized by absorption measurements at 305 nm, assuming an E^mM of 0.62.\nTruncated trehalose synthase was prepared as described by Londesborough & Vuorio [(1991) loc. cit.] and contained the 57 kDa short chain and 86 and 93 kDa fragments of the long chain. Intact trehalose synthase was prepared as in Example 1. Kinetic assays were done at 30° C. as described in General Methods and Materials.", "data": [{"smiles": "O=P(O)(O)O", "note": "[phosphate, K phosphate]", "values": [{"measurement": "Tre6P synthase activity, Truncated Enzyme", "setting": "1.3 mM added K phosphate pH 6.8", "value": 94, "unit": "%"}, {"measurement": "Tre6P synthase activity, Truncated Enzyme", "setting": "4.0 mM added K phosphate pH 6.8", "value": 83, "unit": "%"}]}]}
